In patent US8987445B2, “Sulfonamide compounds having TRPM8 antagonistic activity” (Mitsubishi Tanabe Pharma Corporation, priority 2011, dated 2015) one finds IC50 data, which are given here for 51 molecules.

Structures are written as SMILES.

Chain of human TRPM8 (Q7Z2W7 whole entry): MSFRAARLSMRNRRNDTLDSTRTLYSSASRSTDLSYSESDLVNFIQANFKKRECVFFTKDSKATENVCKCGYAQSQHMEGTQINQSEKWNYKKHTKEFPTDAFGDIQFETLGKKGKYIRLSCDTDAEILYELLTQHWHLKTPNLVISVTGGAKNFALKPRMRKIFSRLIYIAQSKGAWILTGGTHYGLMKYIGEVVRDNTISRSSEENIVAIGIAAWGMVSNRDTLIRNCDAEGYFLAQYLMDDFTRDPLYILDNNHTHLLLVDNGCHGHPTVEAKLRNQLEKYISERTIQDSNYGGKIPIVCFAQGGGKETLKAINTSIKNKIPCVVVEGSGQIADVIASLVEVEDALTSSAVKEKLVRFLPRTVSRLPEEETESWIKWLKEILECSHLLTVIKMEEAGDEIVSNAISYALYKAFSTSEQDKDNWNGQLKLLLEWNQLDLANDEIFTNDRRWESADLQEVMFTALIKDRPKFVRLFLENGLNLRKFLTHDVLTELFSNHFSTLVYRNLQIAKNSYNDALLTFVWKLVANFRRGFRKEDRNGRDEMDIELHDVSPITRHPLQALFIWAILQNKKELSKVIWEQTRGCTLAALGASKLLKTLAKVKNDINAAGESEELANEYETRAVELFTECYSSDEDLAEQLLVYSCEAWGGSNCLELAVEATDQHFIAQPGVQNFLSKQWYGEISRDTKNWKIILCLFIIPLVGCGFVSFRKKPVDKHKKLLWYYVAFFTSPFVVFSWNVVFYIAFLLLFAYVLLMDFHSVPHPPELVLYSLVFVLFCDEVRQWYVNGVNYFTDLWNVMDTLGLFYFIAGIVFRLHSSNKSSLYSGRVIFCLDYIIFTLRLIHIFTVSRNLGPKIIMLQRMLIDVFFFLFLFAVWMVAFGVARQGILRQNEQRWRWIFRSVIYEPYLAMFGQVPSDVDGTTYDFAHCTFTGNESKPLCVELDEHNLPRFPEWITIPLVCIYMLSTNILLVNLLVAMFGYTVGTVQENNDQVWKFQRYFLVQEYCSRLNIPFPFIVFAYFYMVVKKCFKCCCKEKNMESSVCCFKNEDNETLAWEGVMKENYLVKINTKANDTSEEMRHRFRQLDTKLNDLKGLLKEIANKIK

In the assay the target is human TRPM8 (Homo sapiens (Human), UniProt Q7Z2W7). Nature of the assay: TRPM8 inhibition assay (menthol-induced calcium influx, FDSS). The note with it: HEK293 cells stably expressing human TRPM8; 100 μM menthol; Fura-2AM Ca2+ signal; read-out: TRPM8 Blocking Test (IC50). Format: cell-based. On the procedure:
The functional activity of compounds was determined by measuring changes in intracellular calcium concentration using a Ca^2+ sensitive fluorescent dye. The changes in fluorescent signal were monitored by the cell imaging technology by Hamamatsu Photonics's Functional Drug Screening System (FDSS). […] HEK293 cells stably expressing human TRPM8 were grown in flasks. On assay day, the culture medium was removed, and cells were washed with phosphate-buffered saline (PBS) and harvested with PBS containing 2 mM ethylenediaminetetraacetic acid, disodium salt (EDTA, 2Na). […] Subsequently, suspended 20,000 to 50,000 cells per well were incubated with test compound (at varying concentrations) in each well for 20 min at 37° C. Changes in intracellular Ca^2+ evoked by 100 μM menthol were measured for 2 min using FDSS. IC50 vales were determined from four-point concentration-response studies. Curves were generated using the average of quadruplicate wells for each data point.
On to `Cc1c(N(Cc2ccc3[nH]cc(Cl)c3c2)S(=O)(=O)c2ccc(C(=O)O)cc2)ncc2ccccc12` [Example 236], for which the half-inhibitory concentration (IC50) is 522 nM.
The figure for `CCc1nc(N(Cc2ccc(OC(F)(F)F)cc2)S(=O)(=O)c2ccc(C(=O)O)cc2)c(C)c2ccccc12` [Example 214] is 8.1 nM.
Consider `CC(C)c1nc(N(Cc2ccc(OC(F)(F)F)cc2)S(=O)(=O)c2ccc(C(=O)O)cc2)c(C2CC2)c2ccccc12` [Example 231], for which the IC50 is 6.9 nM.
In the case of `COC(C)(c1ccc(CN(c2ncc3ccccc3c2C)S(=O)(=O)c2ccc(C(=O)O)cc2)cc1F)C(F)(F)F` (stereo not drawn) [Example 219] it was 2.6 nM; in that of `Cc1c(N(Cc2ccc(OC(F)(F)F)cc2)S(=O)(=O)c2ccc(C(=O)O)cc2)ncc2cccc(Cl)c12` [Example 230], 44 nM.
In the case of `Cc1cc2ccc(Cl)cc2nc1N(Cc1ccc(OC(F)(F)F)cc1)S(=O)(=O)c1ccc(C(=O)O)cc1` [Example 134] it was 695 nM; in that of `Cc1c(N(Cc2ccc(Oc3ccccc3)cc2)S(=O)(=O)c2ccc(C(=O)O)cc2)ncc2ccccc12` [Example 28], 16 nM; in that of `COC1(C(F)(F)F)CCc2cc(CN(c3ncc4ccccc4c3C)S(=O)(=O)c3ccc(C(=O)O)cc3)ccc21` (stereo not drawn) [Example 223], 3.5 nM.
Regarding `Cc1c(N(Cc2ccc3cc[nH]c3c2)S(=O)(=O)c2ccc(C(=O)O)cc2)ncc2ccccc12` [Example 117, 4-{[(1H-indol-6-ylmethyl)(4-methylisoquinolin-3-yl)amino]sulfonyl}benzoic acid], the IC50 turned out to be 54 nM.
In the case of `Cc1c(N(Cc2ccc(C(C)(O)C(F)(F)C(F)(F)F)cc2)S(=O)(=O)c2ccc(C(=O)O)cc2)ncc2ccccc12` (stereo not drawn) [Example 174] it was 35 nM; in that of `Cc1c(N(Cc2ccc(OC(F)(F)F)cc2)S(=O)(=O)c2ccc(C(=O)O)cc2)nc(OC(C)C)c2ccccc12` [Example 100, 4-({(1-isopropoxy-4-methylisoquinolin-3-yl)[4-(trifluoromethoxy)benzyl]amino}sulfonyl)benzoic acid], 21 nM.
Take `Cc1c(N(Cc2ccc(OC(F)(F)F)cc2)S(=O)(=O)c2ccc(C(=O)O)cc2)nc(N2CCCC2)c2ccccc12` [Example 99, 4-({(4-methyl-1-pyrrolidin-1-ylisoquinolin-3-yl)[4-(trifluoromethoxy)benzyl]amino}sulfonyl)benzoic acid]: the IC50 came to 29 nM.
In the case of `Cc1c(N(Cc2cc3cc(F)cc(F)c3s2)S(=O)(=O)c2ccc(C(=O)O)cc2)ncc2ccccc12` [Example 195] it was 6 nM; in that of `CC(O)c1c(N(Cc2ccc(OC(F)(F)F)cc2)S(=O)(=O)c2ccc(C(=O)O)cc2)ncc2ccccc12` (stereo not drawn) [Example 113, 4-({[4-(1-hydroxyethyl)isoquinolin-3-yl][4-(trifluoromethoxy)benzyl]amino}sulfonyl)benzoic acid], 25 nM; in that of `Cc1c(N(Cc2ccccc2)S(=O)(=O)c2ccc(C(=O)O)cc2)nc(C2CC2)c2ccccc12` [Example 139], 12 nM.
In the case of `Cc1c(N(Cc2ccc3c(c2)CC(C)(C)C3)S(=O)(=O)c2ccc(C(=O)O)cc2)ncc2ccccc12` [Example 62] it was 8.3 nM; in that of `Cc1c(N(Cc2ccc3c(c2)CCC3(O)C(F)(F)F)S(=O)(=O)c2ccc(C(=O)O)cc2)ncc2ccccc12` (stereo not drawn) [Example 173], 78 nM; in that of `Cc1c(N(Cc2ccc3c(c2)c(Cl)cn3C)S(=O)(=O)c2ccc(C(=O)O)cc2)ncc2ccccc12` [Example 237], 12 nM.
As to `Cn1ccc2c(Cl)cnc(N(Cc3ccc(OC(F)(F)F)cc3)S(=O)(=O)c3ccc(C(=O)O)cc3)c21` [Example 6, sodium 4-({(4-chloro-1-methyl-1H-pyrrolo[2,3-c]pyridin-7-yl)[4-(trifluoromethoxy)benzyl]amino}sulfonyl)benzoate], the IC50 was determined as 22 nM.
With `CCOc1nc(N(Cc2ccc(OC(F)(F)F)cc2)S(=O)(=O)c2ccc(C(=O)O)cc2)c(C)c2ccccc12` [Example 228], the IC50 came out at 7.2 nM.
In the case of `Cc1c(N(CC2CCN(c3ccccc3)CC2)S(=O)(=O)c2ccc(C(=O)O)cc2)ncc2ccccc12` [Example 85], the half-maximal inhibitory concentration (IC50) came to 79 nM.
As for `Cc1c(N(Cc2ccc3c(c2)CCCC3)S(=O)(=O)c2ccc(C(=O)O)cc2)ncc2ccccc12` [Example 56], the IC50 is 4.7 nM.
In the case of `Cc1c(N(Cc2ccc3c(Cl)c[nH]c3c2)S(=O)(=O)c2ccc(C(=O)O)cc2)ncc2ccccc12` [Example 121, 4-{[[(3-chloro-1H-indol-6-yl)methyl](4-methylisoquinolin-3-yl)amino]sulfonyl}benzoic acid] it was 15 nM; in that of `O=C(O)c1ccc(S(=O)(=O)N(Cc2ccc(OC(F)(F)F)cc2)c2cc3ccccc3c(C3CC3)n2)cc1` [Example 216], 66 nM.
With `COC(C)(c1ccc(CN(c2ncc3ccccc3c2C)S(=O)(=O)c2ccc(C(=O)O)cc2)cc1Cl)C(F)(F)F` (stereo not drawn) [Example 222], the IC50 was 1.6 nM.
As to `Cc1cc2ccccc2nc1N(Cc1ccc(CC2CC2)cc1)S(=O)(=O)c1ccc(C(=O)O)cc1` [Example 183], the half-inhibitory concentration (IC50) came to 7.7 nM.
In the case of `Cc1c(N(Cc2ccc(-c3ccccc3)cc2)S(=O)(=O)c2ccc(C(=O)O)cc2)ncc2ccccc12` [Example 27] it was 26 nM; in that of `Cc1c(N(Cc2cc3c(Cl)cccc3s2)S(=O)(=O)c2ccc(C(=O)O)cc2)ncc2ccccc12` [Example 196], 2.2 nM; in that of `CONC(=O)c1ccc(S(=O)(=O)N(Cc2ccc(OC(F)(F)F)cc2)c2ncc3ccccc3c2C)cc1` [Example 124, N-methoxy-4-({(4-methylisoquinolin-3-yl)[4-(trifluoromethoxy)benzyl]amino}sulfonyl)benzamide], 13 nM.
Turning to `Cc1c(N(Cc2ccc3c(Cl)cn(C)c3c2)S(=O)(=O)c2ccc(C(=O)O)cc2)ncc2ccccc12` [Example 122, 4-{[[(3-chloro-1-methyl-1H-indol-6-yl)methyl](4-methylisoquinolin-3-yl)amino]sulfonyl}benzoic acid], the IC50 turned out to be 57 nM.
Turning to `Cc1c(N(Cc2cc3cc(Cl)ccc3s2)S(=O)(=O)c2ccc(C(=O)O)cc2)ncc2ccccc12` [Example 200], the IC50 is 5.4 nM.
In the case of `CCOC(C)(c1ccc(CN(c2ncc3ccccc3c2C)S(=O)(=O)c2ccc(C(=O)O)cc2)cc1F)C(F)(F)F` (stereo not drawn) [Example 220], the IC50 is 5 nM.
In the case of `Cc1c(N(Cc2cccc(C(F)(F)C3CC3)c2)S(=O)(=O)c2ccc(C(=O)O)cc2)ncc2ccccc12` [Example 205] it was 31 nM; in that of `Cc1c(N(Cc2ccc(OC3CC3)cc2)S(=O)(=O)c2ccc(C(=O)O)cc2)ncc2ccccc12` [Example 45], 35 nM.
The figure for `Cc1c(N(Cc2cc(F)c3c(c2)CCC3)S(=O)(=O)c2ccc(C(=O)O)cc2)ncc2ccccc12` [Example 175] is 4.4 nM.
Turning to `Cc1cc2ccccc2nc1N(Cc1ccc(F)c(C(F)(F)F)c1)S(=O)(=O)c1ccc(C(=O)O)cc1` [Example 20], the IC50 was 12 nM.
Regarding `Cc1c(N(Cc2ccc(-c3cccc(F)c3)cc2)S(=O)(=O)c2ccc(C(=O)O)cc2)ncc2ccccc12` [Example 89], the IC50 was determined as 15 nM.
Consider `Cn1ccc2c(N(Cc3ccc(OC(F)(F)F)cc3)S(=O)(=O)c3ccc(C(=O)O)cc3)ncc(Cl)c21` [Example 211], for which the IC50 was 987 nM.
In the case of `CCOC(C)(c1ccc(CN(c2ncc3ccccc3c2C)S(=O)(=O)c2ccc(C(=O)O)cc2)cc1)C(F)(F)F` (stereo not drawn) [Example 14, 4-{[[4-(1-ethoxy-2,2,2-trifluoro-1-methylethyl)benzyl](4-methylisoquinolin-3-yl)amino]sulfonyl}benzoic acid] it was 4.7 nM.
In the case of `Cc1cc2ccc(F)cc2nc1N(Cc1ccc(OC(F)(F)F)cc1)S(=O)(=O)c1ccc(C(=O)O)cc1` [Example 146] it was 70 nM.
The figure for `Cc1cc2ccccc2nc1N(Cc1ccc(C(F)(F)C2CC2)cc1)S(=O)(=O)c1ccc(C(=O)O)cc1` [Example 182] is 4 nM.
In the case of `Cc1c(N(Cc2ccc(OC(F)(F)F)cc2)S(=O)(=O)c2ccc(C(=O)O)cc2)nc(C(C)O)c2ccccc12` (stereo not drawn) [Example 115, 4-({[1-(1-hydroxyethyl)-4-methylisoquinolin-3-yl][4-(trifluoromethoxy)benzyl]amino}sulfonyl)benzoic acid], the 50% inhibitory concentration (IC50) came to 97 nM.
In the case of `Cc1c(N(Cc2cccc3ccccc23)S(=O)(=O)c2ccc(C(=O)O)cc2)ncc2ccccc12` [Example 31] it was 65 nM.
In the case of `Cc1cc2ccccc2nc1N(Cc1cccc(C(F)(F)C2CC2)c1)S(=O)(=O)c1ccc(C(=O)O)cc1` [Example 206] it was 21 nM; in that of `Cc1c(N(Cc2ccc(-c3ccccc3F)cc2)S(=O)(=O)c2ccc(C(=O)O)cc2)ncc2ccccc12` [Example 88], 10 nM.
In the case of `Cc1c(N(Cc2ccc(CC3CC3)cc2F)S(=O)(=O)c2ccc(C(=O)O)cc2)ncc2ccccc12` [Example 171] it was 7.1 nM; in that of `Cc1c(N(Cc2ccc3c(Cl)n[nH]c3c2)S(=O)(=O)c2ccc(C(=O)O)cc2)ncc2ccccc12` [Example 176], 21 nM.
As to `Cc1c(N(Cc2ccc(C(F)(F)C3CCC3)cc2)S(=O)(=O)c2ccc(C(=O)O)cc2)ncc2ccccc12` [Example 189], the IC50 came out at 1.7 nM.
In the case of `O=C(O)c1ccc(S(=O)(=O)N(Cc2ccc(OC(F)(F)F)cc2)c2ncc(Cl)c3ccccc23)cc1` [Example 130] it was 94 nM.
The figure for `Cc1c(N(Cc2ccc(C(F)(F)F)cn2)S(=O)(=O)c2ccc(C(=O)O)cc2)ncc2ccccc12` [Example 66] is 38 nM; for `Cc1cc2ccccc2nc1N(Cc1ccc(OC(F)(F)F)cc1)S(=O)(=O)c1ccc(C(=O)O)cc1` [Example 17] it is 5 nM.

Broadly, the IC50 is the midpoint of a concentration-inhibition curve.
